Laboratory results: US12171757B2, “Crenolanib for treating FLT3 mutated proliferative disorders” (Arog Pharmaceuticals, Inc., priority 2013, dated 2024)

What was measured:
[1] = tested on: relapsed/refractory AML patient with an acquired FLT3-ITD mutation; assay: Crenolanib besylate monotherapy, Example 4 patient, phase II clinical trial NCT01522469; assay type: in vivo, human
Description: (§1) Response criteria for AML clinical trials are adapted from the International Working Group for AML. See Cheson et al. Revised Recommendations of the International Working Group for Diagnosis, Standardization of Response Criteria, Treatment Outcomes, and Reporting Standards for Therapeutic Trials in Acute Myeloid Leukemia. J Clin Oncol. 2003; 21: 4642-4649. Responders are patients who obtain a Complete Response (CR), Complete Response with incomplete blood count recovery (CRi), or Partial Remission (PR). Briefly, criteria are as follows:
A 60.6 kg person diagnosed with FLT3-negative AML January 2012. […] The patient was then treated with 4 cycles of high dose cytarabine consolidation therapy. […] The patient was treated with 100 mg of crenolanib besylate three times daily. […] The patient discontinued crenolanib therapy and underwent allogeneic stem cell transplant.

[2] = tested on: heavily pretreated relapsed/refractory AML patient with acquired FLT3-ITD and FLT3-D835 TKD mutations; assay: Crenolanib besylate monotherapy, Example 3 patient, phase II clinical trial NCT01522469; assay type: in vivo, human
Description: as §1
A 59.2 kg person diagnosed with AML December 2011. Following initial diagnosis the patient was treated with 7+3 induction chemotherapy, followed by consolidation therapy with 1 cycle of high dose cytarabine. Five months later the patient underwent autologous stem cell transplantation with etoposide and busulfan conditioning. […] The patient was treated with 100 mg of crenolanib besylate three times daily. […] The patient discontinued crenolanib therapy to undergo allogeneic stem cell transplantation conditioning. The patient discontinued crenolanib therapy and underwent allogeneic stem cell transplant.

[3] = tested on: relapsed/refractory AML patient with a de novo FLT3-ITD mutation and acquired FLT3-D835 TKD mutation; assay: Crenolanib besylate single agent therapy, Example 1 patient, clinical trial NCT01522469; assay type: in vivo, human
Description: as §1
To overcome resistance to prior therapy, the patient was provided single agent oral crenolanib besylate on a clinical trial for relapsed or refractory AML patients with a FLT3-D835 TKD mutation (NCT01522469). […] The patient began treatment with 100 mg of oral crenolanib three times daily. […] The patient discontinued crenolanib therapy and underwent allogeneic stem cell transplant.

[4] = tested on: relapsed/refractory AML patient with a de novo FLT3-ITD mutation and acquired FLT3-D835 TKD mutation; assay: Crenolanib besylate single agent therapy, Example 2 patient, clinical trial NCT01522469; assay type: in vivo, human
Description: as §1
To overcome resistance to prior therapy with FLT3 tyrosine kinase inhibitor X, the patient was provided single agent oral crenolanib besylate on a clinical trial for relapsed or refractory AML patients with a FLT3-D835 mutation (NCT01522469). At baseline, the patient presented with 91% bone marrow blasts and 4800 units/uL of absolute circulating peripheral blood blasts. The patient began treatment with 80 mg of oral crenolanib three times daily. […] The patient discontinued crenolanib therapy and underwent allogeneic stem cell transplant.

[5] = tested on: refractory or relapsed acute leukemias; settings: patients with refractory or relapsed acute leukemias; cited from earlier work
[6] = day 15 on study drug, 100 mg three times daily
[7] = day 29 on study drug, 100 mg three times daily
[8] = day 58 on study drug, 100 mg three times daily
[9] = day 33 on study drug, 100 mg three times daily
[10] = day 21 on study drug, 80 mg oral three times daily

CC1(COc2ccc3c(c2)ncn3-c2ccc3cccc(N4CCC(N)CC4)c3n2)COC1 [Crenolanib, 4-Piperidinamine, 1-[2-[5-[(3-methyl-3-oxetanyl)methoxy]-1H-benzimidazol-1-yl]-8-quinolinyl]]
Days of therapy to complete clearance of malignant leukemic blasts in peripheral blood ([1]; 100 mg three times daily): 15 days
Clinical response (bone marrow biopsy) ([1]; after 29 days of therapy, 100 mg three times daily): complete remission with incomplete blood count recovery (CRi)
Absolute Peripheral Blast Count (cells/uL) ([1]; day 0 on study drug (baseline)): 198 cells/uL
Bone Marrow Blast (%) ([1]; day 0 on study drug (baseline)): 76%
Absolute Peripheral Blast Count (cells/uL) ([1]; day 1 on study drug, 100 mg three times daily): 130 cells/uL
Absolute Peripheral Blast Count (cells/uL) ([1]; day 8 on study drug, 100 mg three times daily): 19 cells/uL
Absolute Peripheral Blast Count (cells/uL) [1, 6]: 0 cells/uL
Absolute Peripheral Blast Count (cells/uL) ([1]; day 22 on study drug, 100 mg three times daily): 0 cells/uL
Absolute Peripheral Blast Count (cells/uL) [1, 7]: 0 cells/uL
Bone Marrow Blast (%) [1, 7]: 1%
Absolute Peripheral Blast Count (cells/uL) [1, 8]: 0 cells/uL
Bone Marrow Blast (%) [1, 8]: 1%
Days of therapy to complete clearance of malignant leukemic blasts in peripheral blood ([2]; 100 mg three times daily): 15 days
Clinical response (bone marrow biopsy) ([2]; after 33 days of therapy, 100 mg three times daily): complete remission with incomplete blood count recovery (CRi)
Absolute Peripheral Blast Count (units/uL) ([2]; day 0 on study drug (baseline)): 196 units/uL
Bone Marrow Blast (%) ([2]; day 0 on study drug (baseline)): 60-70%
Absolute Peripheral Blast Count (units/uL) ([2]; day 14 on study drug, 100 mg three times daily): 14 units/uL
Absolute Peripheral Blast Count (units/uL) [2, 6]: 0 units/uL
Absolute Peripheral Blast Count (units/uL) ([2]; day 16 on study drug, 100 mg three times daily): 0 units/uL
Absolute Peripheral Blast Count (units/uL) ([2]; day 17 on study drug, 100 mg three times daily): 0 units/uL
Absolute Peripheral Blast Count (units/uL) ([2]; day 18 on study drug, 100 mg three times daily): 0 units/uL
Bone Marrow Blast (%) ([2]; day 27 on study drug, 100 mg three times daily): 10%
Absolute Peripheral Blast Count (units/uL) ([2]; day 28 on study drug, 100 mg three times daily): 0 units/uL
Absolute Peripheral Blast Count (units/uL) [2, 7]: 0 units/uL
Absolute Peripheral Blast Count (units/uL) ([2]; day 31 on study drug, 100 mg three times daily): 0 units/uL
Absolute Peripheral Blast Count (units/uL) ([2]; day 32 on study drug, 100 mg three times daily): 0 units/uL
Absolute Peripheral Blast Count (units/uL) [2, 9]: 0 units/uL
Bone Marrow Blast (%) [2, 9]: 5%
Absolute Peripheral Blast Count (units/uL) ([2]; day 39 on study drug, 100 mg three times daily): 0 units/uL
Absolute Peripheral Blast Count (units/uL) ([2]; day 42 on study drug, 100 mg three times daily): 0 units/uL
Absolute Peripheral Blast Count (units/uL) ([2]; day 44 on study drug, 100 mg three times daily): 0 units/uL
Absolute Peripheral Blast Count (units/uL) ([2]; day 45 on study drug, 100 mg three times daily): 0 units/uL
Absolute Peripheral Blast Count (units/uL) ([2]; day 46 on study drug, 100 mg three times daily): 0 units/uL
Absolute Peripheral Blast Count (units/uL) ([2]; day 47 on study drug, 100 mg three times daily): 0 units/uL
Absolute Peripheral Blast Count (units/uL) ([2]; day 48 on study drug, 100 mg three times daily): 0 units/uL
Absolute Peripheral Blast Count (units/uL) ([2]; day 49 on study drug, 100 mg three times daily): 0 units/uL
Absolute Peripheral Blast Count (units/uL) ([2]; day 50 on study drug, 100 mg three times daily): 0 units/uL
Absolute Peripheral Blast Count (units/uL) ([2]; day 51 on study drug, 100 mg three times daily): 0 units/uL
Absolute Peripheral Blast Count (units/uL) ([2]; day 52 on study drug, 100 mg three times daily): 0 units/uL
Clinical response (bone marrow biopsy) ([3]; after 29 days of therapy, 100 mg, decreased to 80 mg, oral three times daily): complete remission (CR)
Bone Marrow Blast (%) ([3]; day 0 on study drug (baseline)): 75%
Bone Marrow Blast (%) ([3]; day 29 on study drug, 100 mg, decreased to 80 mg, oral three times daily): 0%
Bone Marrow Blast (%) ([3]; day 57 on study drug, 100 mg, decreased to 80 mg, oral three times daily): 1%
Days of therapy to complete clearance of malignant leukemic blasts in peripheral blood ([4]; 80 mg oral three times daily): 14 days
Bone Marrow Blast (%) ([4]; day 0 on study drug (baseline)): 91%
Absolute Peripheral Blast Count (units/uL) ([4]; day 1 on study drug (baseline value), 80 mg oral three times daily): 4800 units/uL
Absolute Peripheral Blast Count (units/uL) ([4]; day 3 on study drug, 80 mg oral three times daily): 2747 units/uL
Absolute Peripheral Blast Count (units/uL) ([4]; day 4 on study drug, 80 mg oral three times daily): 250 units/uL
Absolute Peripheral Blast Count (units/uL) ([4]; day 7 on study drug, 80 mg oral three times daily): 49 units/uL
Absolute Peripheral Blast Count (units/uL) ([4]; day 9 on study drug, 80 mg oral three times daily): 35 units/uL
Absolute Peripheral Blast Count (units/uL) ([4]; day 14 on study drug, 80 mg oral three times daily): 0 units/uL
Absolute Peripheral Blast Count (units/uL) [4, 10]: 0 units/uL
Bone Marrow Blast (%) [4, 10]: 32%
Absolute Peripheral Blast Count (units/uL) ([4]; day 28 on study drug, 80 mg oral three times daily): 0 units/uL
Bone Marrow Blast (%) ([4]; day 35 on study drug, 80 mg oral three times daily): 2%
Absolute Peripheral Blast Count (units/uL) ([4]; day 37 on study drug, 80 mg oral three times daily): 0 units/uL
Absolute Peripheral Blast Count (units/uL) ([4]; day 38 on study drug, 80 mg oral three times daily): 0 units/uL
Absolute Peripheral Blast Count (units/uL) ([4]; day 39 on study drug, 80 mg oral three times daily): 0 units/uL
Absolute Peripheral Blast Count (units/uL) ([4]; day 40 on study drug, 80 mg oral three times daily): 0 units/uL
Absolute Peripheral Blast Count (units/uL) ([4]; day 41 on study drug, 80 mg oral three times daily): 0 units/uL
Absolute Peripheral Blast Count (units/uL) ([4]; day 42 on study drug, 80 mg oral three times daily): 0 units/uL
Absolute Peripheral Blast Count (units/uL) ([4]; day 43 on study drug, 80 mg oral three times daily): 0 units/uL
Absolute Peripheral Blast Count (units/uL) ([4]; day 45 on study drug, 80 mg oral three times daily): 0 units/uL
Absolute Peripheral Blast Count (units/uL) ([4]; day 46 on study drug, 80 mg oral three times daily): 0 units/uL
Absolute Peripheral Blast Count (units/uL) ([4]; day 47 on study drug, 80 mg oral three times daily): 0 units/uL
Absolute Peripheral Blast Count (units/uL) ([4]; day 48 on study drug, 80 mg oral three times daily): 0 units/uL
Absolute Peripheral Blast Count (units/uL) ([4]; day 49 on study drug, 80 mg oral three times daily): 0 units/uL
Absolute Peripheral Blast Count (units/uL) ([4]; day 50 on study drug, 80 mg oral three times daily): 0 units/uL
Absolute Peripheral Blast Count (units/uL) ([4]; day 51 on study drug, 80 mg oral three times daily): 0 units/uL
Absolute Peripheral Blast Count (units/uL) ([4]; day 52 on study drug, 80 mg oral three times daily): 0 units/uL
Bone Marrow Blast (%) ([4]; day 65 on study drug, 80 mg oral three times daily): 4-5%
Absolute Peripheral Blast Count (units/uL) ([4]; day 69 on study drug, 80 mg oral three times daily): 0 units/uL
Clinical response (bone marrow biopsy) ([4]; over the course of 65 days of therapy, 80 mg oral three times daily): complete remission with incomplete blood count recovery (CRi)

CNC(=O)c1cc(Oc2ccc(NC(=O)Nc3ccc(Cl)c(C(F)(F)F)c3)cc2)ccn1 [sorafenib]
Effect on bone marrow (BM) blasts [5]: only modest BM blast reductions
Effect on peripheral blood (PB) blasts [5]: effective in clearing PB blasts
